Here are results for 54 molecules from ChEMBL document CHEMBL1151749, “Discovery of quinazolines as histamine H4 receptor inverse agonists using a scaffold hopping approach” (J Med Chem, 2008).

SMILES strings stand for the structures.

T1 sequence (Q9H3N8 whole entry): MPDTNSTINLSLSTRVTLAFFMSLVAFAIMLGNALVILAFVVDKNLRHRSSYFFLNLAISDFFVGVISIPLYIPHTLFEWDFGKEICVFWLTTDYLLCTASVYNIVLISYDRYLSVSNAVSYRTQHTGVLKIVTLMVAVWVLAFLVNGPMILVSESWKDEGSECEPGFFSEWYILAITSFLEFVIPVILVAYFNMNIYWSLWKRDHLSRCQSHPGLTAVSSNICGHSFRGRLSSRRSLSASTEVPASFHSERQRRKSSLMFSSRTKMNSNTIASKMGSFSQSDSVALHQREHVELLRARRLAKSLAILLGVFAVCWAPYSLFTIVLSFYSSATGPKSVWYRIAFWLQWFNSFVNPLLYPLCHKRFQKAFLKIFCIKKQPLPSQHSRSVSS
Chain of Histamine H4 receptor (Rattus norvegicus, UniProt Q91ZY1) (Q91ZY1 whole entry): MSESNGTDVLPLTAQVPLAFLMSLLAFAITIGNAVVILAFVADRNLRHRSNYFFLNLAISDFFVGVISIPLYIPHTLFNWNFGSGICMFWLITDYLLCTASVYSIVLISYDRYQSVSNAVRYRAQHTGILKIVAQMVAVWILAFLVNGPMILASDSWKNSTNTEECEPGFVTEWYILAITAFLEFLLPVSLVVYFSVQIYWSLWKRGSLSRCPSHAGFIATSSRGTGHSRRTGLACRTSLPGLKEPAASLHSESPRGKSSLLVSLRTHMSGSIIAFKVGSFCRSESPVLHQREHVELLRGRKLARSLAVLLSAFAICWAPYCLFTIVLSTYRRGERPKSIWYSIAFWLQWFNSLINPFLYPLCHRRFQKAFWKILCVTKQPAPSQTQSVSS
Chain of Histamine H1 receptor (P35367 whole entry): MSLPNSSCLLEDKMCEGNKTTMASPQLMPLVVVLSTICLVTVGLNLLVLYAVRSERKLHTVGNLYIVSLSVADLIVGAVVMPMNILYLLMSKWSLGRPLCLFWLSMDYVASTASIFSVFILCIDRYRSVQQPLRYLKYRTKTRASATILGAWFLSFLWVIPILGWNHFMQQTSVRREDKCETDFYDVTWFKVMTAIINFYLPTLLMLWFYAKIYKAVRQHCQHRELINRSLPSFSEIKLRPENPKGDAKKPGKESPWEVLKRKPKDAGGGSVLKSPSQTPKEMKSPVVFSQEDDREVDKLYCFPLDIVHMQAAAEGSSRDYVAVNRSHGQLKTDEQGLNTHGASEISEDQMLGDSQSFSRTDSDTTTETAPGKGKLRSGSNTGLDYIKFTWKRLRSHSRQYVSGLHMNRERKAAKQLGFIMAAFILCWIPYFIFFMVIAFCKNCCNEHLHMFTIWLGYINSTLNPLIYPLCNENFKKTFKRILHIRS

One assay addresses Histamine H4 receptor (Rattus norvegicus, UniProt Q91ZY1). Briefly: Binding affinity to rat histamine H4 receptor.
As usually defined, the Ki is the equilibrium dissociation constant of an inhibitor or competing ligand from its target. A high value points to weaker binding. Molecule `CN1CCN(c2nc(NCc3ccoc3)c3cc(Cl)ccc3n2)CC1` showed a Ki of 24.5 nM. Still for that read-out and setting: the value for `CN1CCN(c2nc(NCc3cccs3)c3cc(Cl)ccc3n2)CC1` was 15.8 nM.

A further assay has as its target T1, Histamine H4 receptor (Homo sapiens, UniProt Q9H3N8). The experiment in a line: Displacement of [3H]histamine from human histamine H4 receptor expressed in HEK cells. In kind it is cell-based, HEK293.
Molecule `CC(C)Nc1nc(N2CCN(C)CC2)nc2ccc(Cl)cc12` gave an inhibition constant (Ki) of 759 nM. In the case of `CN1CCN(c2nc(NCCc3cccs3)c3cc(Cl)ccc3n2)CC1`, the Ki is 60.3 nM. With `CNc1nc(N2CC[C@H](NC)C2)nc2ccc(Cl)cc12`, the inhibition constant (Ki) was > 1000 nM. Same read-out and setting: for `CNc1nc(N2CCC3(CCN(C)C3)C2)nc2ccc(Cl)cc12` (configuration not stated) the value was > 1000 nM. Same read-out and setting: for `CN1CCN(c2nc(NCc3ccccc3)c3ccccc3n2)CC1` the value was 1070 nM; for `CN1CCN(c2nc(OCc3ccccc3)c3ccccc3n2)CC1`, 4070 nM; for `CN1CCN(c2nc(Nc3ccccc3)c3ccccc3n2)CC1`, 8510 nM. `Cc1ccsc1CNc1nc(N2CCN(C)CC2)nc2ccc(Cl)cc12`: the Ki was 33.9 nM.

Regarding `CNc1nc(N2CCC3(CCN(C)CC3)CC2)nc2ccc(Cl)cc12`, the inhibitory constant (Ki) was > 1000 nM. Same read-out and setting: for `CN1CCN(c2nc(NCC3CCCCC3)c3cc(Cl)ccc3n2)CC1` the value was 589 nM; for `CN1CCN(c2nc(NCc3ccc(C#N)cc3)c3cc(Cl)ccc3n2)CC1`, 129 nM. The same measure, in the same setting: for `CNc1nc(N2C[C@H]3CNC[C@H]3C2)nc2ccc(Cl)cc12` the value was > 1000 nM; for `CN1CCN(c2nc(N)c3ccccc3n2)CC1`, 2140 nM. Consider `CN1CCN(c2nc(NCc3ccoc3)c3cc(Cl)ccc3n2)CC1`, for which the affinity, expressed as Ki, was 26.9 nM.

Consider `CNc1nc(N2CCN(C)CC2)nc2cc(Cl)ccc12`, for which the inhibitory constant (Ki) was 955 nM. This Ki is about 36-fold higher than that of the molecule before. Turning to `COc1ccc(CNc2nc(N3CCN(C)CC3)nc3ccc(Cl)cc23)cc1`, the affinity, expressed as Ki, was 363 nM. The same measure, in the same setting: for `CN1CCN(c2nc(NCc3ccsc3)c3cc(Cl)ccc3n2)CC1` the value was 35.5 nM.

`CN1CCN(c2nc(NCc3cc4ccccc4s3)c3cc(Cl)ccc3n2)CC1` gave a Ki of 269 nM. Compared with the last molecule, the Ki is about 7.6-fold higher.

As for `CN1CCN(c2nc(NCCO)c3cc(Cl)ccc3n2)CC1`, the affinity, expressed as Ki, was 575 nM. `CN1CCN(c2nc(NCc3nccs3)c3cc(Cl)ccc3n2)CC1` showed an inhibition constant (Ki) of 105 nM. The molecule `CN1CCN(c2nc(Oc3ccccc3)c3ccccc3n2)CC1` showed a Ki of 2820 nM. `Cc1cc(Cl)cc2c(NCc3ccco3)nc(N3CCN(C)CC3)nc12` showed a Ki of 186 nM. Regarding `CN1CCN(c2nc(NCCc3ccccc3)c3ccccc3n2)CC1`, the inhibition constant Ki is 1480 nM. In turn, `CN1CCN(c2nc(O)c3cc(Cl)ccc3n2)CC1` showed a Ki of 15100 nM. Still for that read-out and setting: the value for `CNc1nc(NCCC2CCN(C)C2)nc2ccc(Cl)cc12` (configuration not stated) was > 1000 nM; that for `CNc1nc(N2CCN3CCCC3C2)nc2ccc(Cl)cc12` (configuration not stated) was 141 nM; that for `CNc1nc(NCC2CCN(C)C2)nc2ccc(Cl)cc12` (configuration not stated) was > 1000 nM.

On to `CN1CCN(c2nc(NCc3ccccc3)c3cc(Cl)ccc3n2)CC1`, for which the inhibition constant (Ki) was 257 nM. Molecule `CNc1nc(N2CCN3CCC[C@H]3C2)nc2ccc(Cl)cc12` showed a Ki of 155 nM. Turning to `CN1CCN(c2nc(NCc3ccco3)c3ccccc3n2)CC1`, the affinity, expressed as Ki, was 603 nM. This Ki lies about 3.9-fold higher than the previous one. Still for that read-out and setting: the value for `CNc1nc(N2CCN(C)CC2)nc2ccc(Cl)cc12` was 70.8 nM; that for `CN1CCN(c2nc(NCc3ccc(F)cc3)c3cc(Cl)ccc3n2)CC1` was 105 nM; that for `CN1CCN(c2nc(NCc3ccco3)c3cc(F)ccc3n2)CC1` was 224 nM. The same measure, in the same setting: for `Cc1noc(CNc2nc(N3CCN(C)CC3)nc3ccc(Cl)cc23)n1` the value was 372 nM; for `CN1CCN(c2nc(N)c3cc(Cl)ccc3n2)CC1`, 105 nM; for `CN1CCN(c2nc(NCc3cncs3)c3cc(Cl)ccc3n2)CC1`, 107 nM.

Regarding `CNc1nc(N2CC(C)N(C)C(C)C2)nc2ccc(Cl)cc12` (configuration not stated), the inhibition constant Ki was > 1000 nM. For the molecule `CNc1nc(N2CCCC2CN2CCN(C)CC2)nc2ccc(Cl)cc12` (configuration not stated), the Ki is > 1000 nM. Take `CNc1nc(N2CCN(C)CC2C)nc2ccc(Cl)cc12` (configuration not stated): the Ki is > 1000 nM. The same measure, in the same setting: for `Cc1ccc(CNc2nc(N3CCN(C)CC3)nc3ccc(Cl)cc23)o1` the value was 135 nM; for `CN1CCN(c2nc(NCCc3ccccc3)c3cc(Cl)ccc3n2)CC1`, 240 nM; for `CNc1nc(N2CC[C@H](N)C2)nc2ccc(Cl)cc12`, > 1000 nM. In the case of `CNc1nc(N2CC[C@@H](N)C2)nc2ccc(Cl)cc12`, the inhibition constant Ki was > 1000 nM.

Turning to `CN1CCN(c2nc(N(C)C)c3cc(Cl)ccc3n2)CC1`, the affinity, expressed as Ki, was 617 nM. In other words, the sub-micromolar range. Consider `CN1CCN(c2nc3ccc(Cl)cc3nc2OCc2ccccc2)CC1`, for which the Ki is 269 nM. Against the preceding molecule, the Ki is about 2.3-fold lower. The same measure, in the same setting: the value for `CNc1nc(N2CCN(C)CC2)nc2cccc(C)c12` was 692 nM; that for `CNc1nc(N2CCCN(C)CC2)nc2ccc(Cl)cc12` was > 1000 nM; that for `CCOC(=O)CNc1nc(N2CCN(C)CC2)nc2ccc(Cl)cc12` was 955 nM. Still for that read-out and setting: the value for `CN1CCN(c2nc(NCc3ccco3)c3cc(Cl)ccc3n2)CC1` was 89.1 nM; that for `CNc1nc(N2CC3CCCNC3C2)nc2ccc(Cl)cc12` (configuration not stated) was > 1000 nM; that for `CNc1nc(NCC2CCN(C)CC2)nc2ccc(Cl)cc12` was > 1000 nM. On to `Cc1csc(CNc2nc(N3CCN(C)CC3)nc3ccc(Cl)cc23)c1`, for which the Ki was 38.9 nM.

In turn, `CN1CCN(c2nc(NCc3ccc(N)cc3)c3cc(Cl)ccc3n2)CC1` showed a Ki of 562 nM.

Another assay has as its target Histamine H1 receptor (Homo sapiens, UniProt P35367). The experiment in a line: Displacement of [3H]mepyramine from human histamine H1 receptor expressed in NIH3T3 cells. The class given is cell-based. On the technique in general: In a radioligand displacement assay an active substance lowers the binding of a labelled ligand.
Molecule `CN1CCN(c2nc(NCc3ccoc3)c3cc(Cl)ccc3n2)CC1` gave an inhibition constant (Ki) of 97.7 nM.

The next assay addresses T1, Histamine H4 receptor. Briefly: Inverse agonist activity at human histamine H4 receptor expressed in HEK293T cells by CRE-beta-galactosidase assay. The class given is functional, cell-based, HEK-293T.
The IC50 is the midpoint of a concentration-inhibition curve. The molecule `CN1CCN(c2nc(NCc3ccoc3)c3cc(Cl)ccc3n2)CC1` gave an IC50 of 145 nM.
